Assays:
[1] = system: C. elegans; conditions: oxidative stress; ANK3/unc-44 expression necessary; cited from earlier work
[2] = target: T1, NET (Homo sapiens, UniProt P23975); test: In vitro competition binding, membranes from HEK cell lines overexpressing NET; conditions: radioligand at its Kd concentration; IC50 only in FIG. 1A table
T1 construct: expressed in transfected cells; host or cells: HEK cell line overexpressing the transporter; membranes
From the text: (§1) FIG. 1 depicts exemplary DB104 structure, preclinical result, and clinical trial design. […] In vitro Binding Result: Competition binding experiments were utilized to determine the in vitro binding potencies (IC50 values) of BMS-820836 for SERT, DAT, and NET. Membranes prepared from human embryonic kidney (HEK) cell lines overexpressing each transporter were employed in the assays. Radioligands were used at their respective affinity constant (Kd) concentrations for each transporter to enable direct comparisons of the IC50 values between assays. Monoamine Reupdate inhibition: Cell-based assays were used to determine the ability of BMS-820836 to inhibit reuptake of 3H-labeled dopamine ([^3H]DA), norepinephrine ([^3H]NE), and serotonin ([^3H]5-HT).

[3] = phase 2 clinical studies; cited from earlier work
[4] = system: patients with MDD; conditions: overall population, CN162006 and CN162007; cited from earlier work
[5] = target: T2, HEK293/hDAT cells (Homo sapiens, UniProt Q01959); test: Cell-based monoamine reuptake inhibition, [3H]DA uptake; conditions: IC50 only in FIG. 1A table
T2 construct: expressed in transfected cells; host or cells: HEK293/hDAT cells
From the text: as §1

[6] = target: T3, DAT (Homo sapiens, UniProt Q01959); test: In vitro competition binding, membranes from HEK cell lines overexpressing DAT; conditions: radioligand at its Kd concentration; IC50 only in FIG. 1A table
T3 construct: expressed in transfected cells; host or cells: HEK cell line overexpressing the transporter; membranes
From the text: as §1

[7] = system: patients with MDD; test: Phase 2b efficacy studies CN162006 and CN162007, MADRS total score, analysed by rs12217173 genotype; type: in vivo, human
Procedure: The Phase 2b program for DB104 consists of two efficacy studies (CN162006 and CN162007), and both efficacy studies have a similar design and include patients with MDD. CN162006 is flexible-dose study where patients with a history of inadequate response to at least one but less than four antidepressants and one prospective treatment (duloxetine) are switched to flexibly-dosed DB104 (0.5-2 mg/d) or remain on duloxetine (Bhagwagar Z. et al. 2015). CN162007 is a fixed dose, dose-response study where patients with a history of inadequate response to at least one but less than four antidepressants and one prospective treatment (duloxetine/escitalopram) are switched to fixed doses of DB104 (0.25, 0.5, 1, 2 mg/day) or remain on duloxetine/escitalopram (FIG. 1B and 1C). […] (Bhagwagar Z. et al. 2015.)
We were provided with a large number of whole blood samples that were collected from the above phase II clinical trials (CN162-006 and CN162-007), and these samples corresponded to 233 unique patients that had received DB104 and completed the trial adequately to measure their response to treatment. Thus, germline DNA samples extracted from blood of patients enrolled in these two trials were used to identify pharmacogenetic biomarker for DB104. For the discovery phase, 188 samples were selected, and the remaining 45 samples would be left for validating any potential SNPs using PCR. The discover and validation datasets were balanced for race and dose/trial number. In discovery phase, 188 samples from DB104 treatment group were genotyped using the Illumina 4.5 million whole genome SNP arrays. Two (2) out of the 188 samples failed QC and were excluded from the genome-wide analysis but added to the validation set. From this genome wide screen from 186 samples, we have identified SNP rs12217173 which has a p-value of 6.609×10^−8, which is very close to genome-wide significance cut-off of 5×10^−8, especially given the limited sample size of this study.
To confirm the finding of rs12217173 as possible pharmacogenetic biomarker to predict DB104 efficacy, we next measured its genotype with Taqman SNP assay using the validation set which consists 47 patients, including two additional samples failed in genome-wide scan QC but passed real time PCR QC. […] Thus, patients with GG genotype were defined as the responders and patients carrying AA or AG genotype are defined as non-responders to DB104 treatment.
To examine whether rs12217173 is merely a prognostic biomarker for the disease instead of specific pharmacogenomic biomarker for DB104, DNA samples from 182 patients from the control group treated with duloxetine/escitalopram were genotyped using the Taqman SNP assays. […] Therefore, rs12217173 associated improvement in MADRS is related to DB104 treatment, and rs12217173 appears to be a pharmacogenomics biomarker for predicting DB104's anti-depression activity, and thus it is named as DGM4 (Denovo Genomic Marker 4).
CN162006 is flexible-dose study where DB104 doses ranged from 0.5-2 mg/d, and CN162007 is a fixed dose, dose-response study where patients were treated with doses of DB104 at 0.25, 0.5, 1, or 2 mg/day. Due to the limitation on samples available for the genome-wide study, the analysis described in previous section was not treating patients taking different doses of DB104 differently. In order to refine our analysis, we have further evaluated the effect of DB104 dose in these two studies. In CN162006, the mean and median average dose per day is 1.5 mg, and 94% patients received doses of 1 to 2 mg per day.

[8] = target: T4, SERT (Homo sapiens, UniProt P31645); test: In vitro competition binding, membranes from HEK cell lines overexpressing SERT; conditions: radioligand at its Kd concentration; IC50 only in FIG. 1A table
T4 construct: expressed in transfected cells; host or cells: HEK cell line overexpressing the transporter; membranes
From the text: as §1

[9] = GG genotype, week 5 and 6, excluding 0.25 and 0.5 mg

T4 sequence (P31645 whole entry): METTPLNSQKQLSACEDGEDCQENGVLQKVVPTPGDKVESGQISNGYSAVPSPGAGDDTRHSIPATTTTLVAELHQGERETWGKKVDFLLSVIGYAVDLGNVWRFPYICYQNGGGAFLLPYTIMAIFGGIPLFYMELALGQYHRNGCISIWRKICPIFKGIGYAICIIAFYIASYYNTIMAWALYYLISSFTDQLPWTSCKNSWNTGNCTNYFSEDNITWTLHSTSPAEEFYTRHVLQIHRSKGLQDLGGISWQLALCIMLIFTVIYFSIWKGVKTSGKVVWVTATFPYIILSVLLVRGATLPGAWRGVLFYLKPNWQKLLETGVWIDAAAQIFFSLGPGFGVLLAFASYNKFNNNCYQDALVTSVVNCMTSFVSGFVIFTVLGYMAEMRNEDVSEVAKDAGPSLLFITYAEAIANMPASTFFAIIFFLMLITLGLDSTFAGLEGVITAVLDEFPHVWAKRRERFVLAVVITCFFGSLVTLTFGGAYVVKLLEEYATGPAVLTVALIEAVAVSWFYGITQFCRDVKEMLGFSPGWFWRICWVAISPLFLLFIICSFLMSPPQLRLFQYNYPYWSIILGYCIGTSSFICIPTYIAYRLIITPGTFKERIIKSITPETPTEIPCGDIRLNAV
T3 sequence (Q01959 whole entry): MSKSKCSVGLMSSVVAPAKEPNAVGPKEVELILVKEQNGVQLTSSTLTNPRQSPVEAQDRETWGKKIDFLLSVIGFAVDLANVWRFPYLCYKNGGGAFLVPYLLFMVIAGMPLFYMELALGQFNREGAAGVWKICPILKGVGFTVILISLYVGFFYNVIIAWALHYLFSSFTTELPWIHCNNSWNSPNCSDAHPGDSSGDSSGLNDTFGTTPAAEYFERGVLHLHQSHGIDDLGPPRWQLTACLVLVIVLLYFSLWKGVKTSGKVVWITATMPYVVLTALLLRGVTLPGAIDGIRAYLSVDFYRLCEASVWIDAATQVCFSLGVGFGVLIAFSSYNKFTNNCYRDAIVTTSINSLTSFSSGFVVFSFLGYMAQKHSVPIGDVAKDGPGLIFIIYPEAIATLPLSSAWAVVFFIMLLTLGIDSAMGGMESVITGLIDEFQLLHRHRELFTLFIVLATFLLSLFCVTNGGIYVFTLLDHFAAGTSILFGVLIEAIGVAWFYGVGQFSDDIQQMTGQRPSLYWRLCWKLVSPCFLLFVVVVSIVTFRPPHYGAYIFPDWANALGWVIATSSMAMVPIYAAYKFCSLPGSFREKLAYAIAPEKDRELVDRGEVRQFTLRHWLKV
T2 sequence (Q01959 whole entry): as above
T1 sequence (P23975 whole entry): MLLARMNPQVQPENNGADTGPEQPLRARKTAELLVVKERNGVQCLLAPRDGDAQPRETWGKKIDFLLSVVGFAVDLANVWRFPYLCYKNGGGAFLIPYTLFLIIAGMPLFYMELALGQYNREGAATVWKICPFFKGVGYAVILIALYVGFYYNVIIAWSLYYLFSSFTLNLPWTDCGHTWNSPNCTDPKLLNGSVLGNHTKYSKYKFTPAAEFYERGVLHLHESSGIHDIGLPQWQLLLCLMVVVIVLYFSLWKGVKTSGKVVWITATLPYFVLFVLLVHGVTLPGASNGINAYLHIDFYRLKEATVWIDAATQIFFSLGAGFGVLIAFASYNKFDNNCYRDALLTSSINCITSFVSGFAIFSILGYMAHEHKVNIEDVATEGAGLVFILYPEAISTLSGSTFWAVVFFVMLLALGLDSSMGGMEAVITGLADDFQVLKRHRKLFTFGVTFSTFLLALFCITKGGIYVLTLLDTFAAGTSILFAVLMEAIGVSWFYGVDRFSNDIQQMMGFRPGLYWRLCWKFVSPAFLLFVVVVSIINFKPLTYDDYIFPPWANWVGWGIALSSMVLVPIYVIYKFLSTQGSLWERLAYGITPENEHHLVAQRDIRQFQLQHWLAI

saturation of NET binding sites in competition binding [2]	inhibition of uptake of [3H]DA [5]	saturation of DAT binding sites in competition binding [6]	saturation of SERT binding sites in competition binding [8]	SMILES	lifespan [1]	discontinuations due to adverse events [3]	tolerability [3]	MADRS total score change from baseline at week 6 (primary endpoint), DB104 vs. continuation of duloxetine/escitalopram [4]	efficacy by dose in patients carrying GG genotype ([7]; CN162007, 0.25, 0.5, 1, 2 mg/day)	MADRS Remission Rate vs SOC treatment group [7, 9]	MADRS Response Rate vs SOC treatment group [7, 9]	MADRS total score reduction vs SOC treatment group [7, 9]	MADRS score change, GG vs AA or AG genotype ([7]; discovery and validation datasets combined)	improvement on MADRS change from the baseline, GG vs AA or AG genotype and vs standard of care ([7]; discovery set (186 patients), GG allele of rs12217173)	MADRS, DB104 treatment group vs SOC treatment group ([7]; pooled 006 and 007 at 1 mg and 2 mg, all genotypes, any time point)	MADRS score reduction from the baseline ([7]; validation set (47 patients), DB104-treated patients carrying GG at rs12217173) [points]	MADRS score reduction from the baseline ([7]; validation set, DB104-treated patients carrying AA or AG genotype)
–	–	–	–	CN1CCN2c3ccccc3Cc3ccccc3C2C1 (centres unmarked) [mianserin]	increase lifespan	–	–	–	–	–	–	–	–	–	–	–	–
completely saturated	potently and completely inhibited	completely saturated	completely saturated	CN1Cc2cc(-c3ccc(N)nn3)ccc2[C@H](c2ccc3ccccc3c2)C1 [DB104, liafensine]	–	no evidence of dose-dependent discontinuations due to adverse events	well tolerated	neither study demonstrated significant improvement	1 mg and 2 mg group exhibited similar efficacy, and both are much better than 0.25 mg and 0.5 mg group	statistical significance	statistical significance	statistical significance	much improved MADRS score change	much better improvement	no significant differences	~16	eight
